Laboratory results taken from patent US6841519B1, “Isoxazoline derivatives and herbicides containing the same as the active ingredient” (Kumiai Chemical Industry Co., Ltd., priority 1999, dated 2005).

Columns and labels:
Format in all cases: in vivo
[1] = system: Echinochloa oryzicola Vasing. (Eo); test: Test for herbicidal effect by paddy field soil treatment (Test Example 1); details: application amount (active ingredient) 100 g/10 a, examined at the 21st day from the treatment, index per Table 40
Summary of the method: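 Eo seeds sown in puddled paddy soil under 3 cm water; next day a water-diluted wettable powder was dropped onto the water surface at 100 g active ingredient per 10 ares. Herbicidal effect scored on a standard scale 21 days after treatment, greenhouse-grown.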

[2] = system: Echinochloa crus-galli (L.) Beauv. var. crusgalli (Ec); test: Test for herbicidal effect by upland foliage treatment (Test Example 3); details: 100 g/10 a active ingredient, examined at 14th day
Summary of the method: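 Potted upland-soil Ec seedlings grown 2 weeks in greenhouse, then foliage-sprayed with water-diluted wettable powder at 100 L per 10 ares, giving 100 g active ingredient per 10 ares. Herbicidal effect scored on a graded standard 14 days after treatment.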

[3] = system: Setaria viridis (L.) Beauv. (Se); test: Test for herbicidal effect by upland field soil treatment (Test Example 2), Se
Summary of the method: (§1)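 Echinochloa crus-galli and Setaria viridis were sown in upland field soil and covered, then the soil surface was sprayed with water-diluted wettable powder at 100 g active ingredient per 10 ares (100 liters per 10 ares). Plants were grown in a greenhouse and scored on a standard scale on day 21.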

[4] = system: Echinochloa crus-galli (L.) Beauv. var. crusgall (Ec); test: Test for herbicidal effect by upland field soil treatment (Test Example 2), Ec
Summary of the method: as §1

[5] = 100 g/10 a active ingredient, examined at 21st day
[6] = application amount (active ingredient) 100 g/10 a, examined at the 21st day from the treatment, index per Table 40

Row | SMILES | Herbicidal effect to Eo [1] | Herbicidal effect to Ec [2] | Herbicidal effect to Se [3, 5] | Herbicidal effect to Ec [4, 5] | Herbicidal effect to Se [3, 6] | Herbicidal effect to Ec [4, 6]
1 | CCCOc1cccc(F)c1CS(=O)(=O)C1=NOC(C)(C)C1 [Compound 1-569] | 5 (A herbicidal effect or phytotoxicity of 90% or more) | 5 (A herbicidal effect or phytotoxicity of 90% or more) | 5 (A herbicidal effect or phytotoxicity of 90% or more) | 5 (A herbicidal effect or phytotoxicity of 90% or more) | – | –
2 | CCC1(C)CC(S(=O)(=O)Cc2cccc(Cl)c2)=NO1 (centres unmarked) [Compound 1-193] | 5 (A herbicidal effect or phytotoxicity of 90% or more) | 5 (A herbicidal effect or phytotoxicity of 90% or more) | – | – | 4 (A herbicidal effect or phytotoxicity of 70% to less than 90%) | 5 (A herbicidal effect or phytotoxicity of 90% or more)
3 | Cc1ccccc1CS(=O)(=O)C1=NOC(C)(C)C1 [Compound 1-5] | 5 (A herbicidal effect or phytotoxicity of 90% or more) | 5 (A herbicidal effect or phytotoxicity of 90% or more) | – | – | 5 (A herbicidal effect or phytotoxicity of 90% or more) | 5 (A herbicidal effect or phytotoxicity of 90% or more)
4 | Cc1ccc([N+](=O)[O-])c(CS(=O)(=O)C2=NOC(C)(C)C2)c1 [Compound 1-540] | 5 (A herbicidal effect or phytotoxicity of 90% or more) | 5 (A herbicidal effect or phytotoxicity of 90% or more) | 5 (A herbicidal effect or phytotoxicity of 90% or more) | 5 (A herbicidal effect or phytotoxicity of 90% or more) | – | –
5 | CC(c1ccccc1)S(=O)(=O)C1=NOC(C)(C)C1 (centres unmarked) [Compound 1-581] | 5 (A herbicidal effect or phytotoxicity of 90% or more) | 4 (A herbicidal effect or phytotoxicity of 70% to less than 90%) | 5 (A herbicidal effect or phytotoxicity of 90% or more) | 5 (A herbicidal effect or phytotoxicity of 90% or more) | – | –
6 | CC1(C)CC(S(=O)(=O)Cc2cc(C(F)(F)F)ccc2F)=NO1 [Compound 1-514] | 5 (A herbicidal effect or phytotoxicity of 90% or more) | 5 (A herbicidal effect or phytotoxicity of 90% or more) | 5 (A herbicidal effect or phytotoxicity of 90% or more) | 5 (A herbicidal effect or phytotoxicity of 90% or more) | – | –
7 | CC(C)OC(=O)c1ccccc1CS(=O)(=O)C1=NOC(C)(C)C1 [Compound 1-595] | 5 (A herbicidal effect or phytotoxicity of 90% or more) | 4 (A herbicidal effect or phytotoxicity of 70% to less than 90%) | 5 (A herbicidal effect or phytotoxicity of 90% or more) | 5 (A herbicidal effect or phytotoxicity of 90% or more) | – | –
8 | CC1(C)CC(S(=O)(=O)Cc2ccc(C(F)(F)F)cc2F)=NO1 [Compound 1-528] | 5 (A herbicidal effect or phytotoxicity of 90% or more) | 5 (A herbicidal effect or phytotoxicity of 90% or more) | 5 (A herbicidal effect or phytotoxicity of 90% or more) | 5 (A herbicidal effect or phytotoxicity of 90% or more) | – | –
9 | CC1(C)CC(S(=O)(=O)Cc2ccc(Cl)cc2)=NO1 [Compound 1-4] | 5 (A herbicidal effect or phytotoxicity of 90% or more) | 4 (A herbicidal effect or phytotoxicity of 70% to less than 90%) | – | – | 5 (A herbicidal effect or phytotoxicity of 90% or more) | 5 (A herbicidal effect or phytotoxicity of 90% or more)
10 | CC1(C)CC(S(=O)(=O)Cc2cc(F)cc(C(F)(F)F)c2)=NO1 [Compound 1-542] | 5 (A herbicidal effect or phytotoxicity of 90% or more) | 4 (A herbicidal effect or phytotoxicity of 70% to less than 90%) | 5 (A herbicidal effect or phytotoxicity of 90% or more) | 5 (A herbicidal effect or phytotoxicity of 90% or more) | – | –
11 | CCC1(C)CC(S(=O)(=O)Cc2cccc(C)c2)=NO1 (centres unmarked) [Compound 1-202] | 5 (A herbicidal effect or phytotoxicity of 90% or more) | 4 (A herbicidal effect or phytotoxicity of 70% to less than 90%) | – | – | 4 (A herbicidal effect or phytotoxicity of 70% to less than 90%) | 5 (A herbicidal effect or phytotoxicity of 90% or more)
12 | Cc1ccc(CS(=O)(=O)C2=NOC(C)(C)C2)cc1C [Compound 1-513] | 5 (A herbicidal effect or phytotoxicity of 90% or more) | 5 (A herbicidal effect or phytotoxicity of 90% or more) | 5 (A herbicidal effect or phytotoxicity of 90% or more) | 5 (A herbicidal effect or phytotoxicity of 90% or more) | – | –
13 | CC1(C)CC(S(=O)(=O)Cc2cccc(OC(F)(F)F)c2)=NO1 [Compound 1-59] | 5 (A herbicidal effect or phytotoxicity of 90% or more) | 5 (A herbicidal effect or phytotoxicity of 90% or more) | – | – | 5 (A herbicidal effect or phytotoxicity of 90% or more) | 5 (A herbicidal effect or phytotoxicity of 90% or more)
14 | Cc1cccc(Cl)c1CS(=O)(=O)C1=NOC(C)(C)C1 [Compound 1-560] | 5 (A herbicidal effect or phytotoxicity of 90% or more) | 4 (A herbicidal effect or phytotoxicity of 70% to less than 90%) | 5 (A herbicidal effect or phytotoxicity of 90% or more) | 5 (A herbicidal effect or phytotoxicity of 90% or more) | – | –
15 | COCc1ccccc1CS(=O)(=O)C1=NOC(C)(C)C1 [Compound 1-160] | 5 (A herbicidal effect or phytotoxicity of 90% or more) | 5 (A herbicidal effect or phytotoxicity of 90% or more) | – | – | 5 (A herbicidal effect or phytotoxicity of 90% or more) | 5 (A herbicidal effect or phytotoxicity of 90% or more)
16 | CCC1(CC)CC(S(=O)(=O)Cc2c(F)cccc2F)=NO1 [Compound 1-364] | 5 (A herbicidal effect or phytotoxicity of 90% or more) | 4 (A herbicidal effect or phytotoxicity of 70% to less than 90%) | – | – | 5 (A herbicidal effect or phytotoxicity of 90% or more) | 5 (A herbicidal effect or phytotoxicity of 90% or more)
17 | CCOc1cccc(Cl)c1CS(=O)(=O)C1=NOC(C)(C)C1 [Compound 1-564] | 5 (A herbicidal effect or phytotoxicity of 90% or more) | 4 (A herbicidal effect or phytotoxicity of 70% to less than 90%) | 5 (A herbicidal effect or phytotoxicity of 90% or more) | 5 (A herbicidal effect or phytotoxicity of 90% or more) | – | –
18 | CC1(C)CC(S(=O)(=O)Cc2ccc(Cl)cc2[N+](=O)[O-])=NO1 [Compound 1-539] | 5 (A herbicidal effect or phytotoxicity of 90% or more) | 5 (A herbicidal effect or phytotoxicity of 90% or more) | 5 (A herbicidal effect or phytotoxicity of 90% or more) | 5 (A herbicidal effect or phytotoxicity of 90% or more) | – | –
19 | CCC1(CC)CC([S+]([O-])Cc2c(F)cccc2F)=NO1 (centres unmarked) [Compound 1-363] | 5 (A herbicidal effect or phytotoxicity of 90% or more) | 4 (A herbicidal effect or phytotoxicity of 70% to less than 90%) | – | – | 4 (A herbicidal effect or phytotoxicity of 70% to less than 90%) | 5 (A herbicidal effect or phytotoxicity of 90% or more)
20 | CC1(C)CC(S(=O)(=O)Cc2ccccc2C#N)=NO1 [Compound 1-139] | 5 (A herbicidal effect or phytotoxicity of 90% or more) | 4 (A herbicidal effect or phytotoxicity of 70% to less than 90%) | – | – | 5 (A herbicidal effect or phytotoxicity of 90% or more) | 5 (A herbicidal effect or phytotoxicity of 90% or more)
21 | CC1(C)CC(S(=O)(=O)Cc2cc(F)c(F)cc2F)=NO1 [Compound 1-510] | 5 (A herbicidal effect or phytotoxicity of 90% or more) | 4 (A herbicidal effect or phytotoxicity of 70% to less than 90%) | 5 (A herbicidal effect or phytotoxicity of 90% or more) | 5 (A herbicidal effect or phytotoxicity of 90% or more) | – | –
22 | CC1(C)CC(S(=O)(=O)Cc2cc(C(F)(F)F)cc(C(F)(F)F)c2)=NO1 [Compound 1-543] | 5 (A herbicidal effect or phytotoxicity of 90% or more) | 4 (A herbicidal effect or phytotoxicity of 70% to less than 90%) | 5 (A herbicidal effect or phytotoxicity of 90% or more) | 5 (A herbicidal effect or phytotoxicity of 90% or more) | – | –
23 | CCC1(C)CC(S(=O)(=O)Cc2ccccc2)=NO1 (centres unmarked) [Compound 1-188] | 5 (A herbicidal effect or phytotoxicity of 90% or more) | 4 (A herbicidal effect or phytotoxicity of 70% to less than 90%) | – | – | 5 (A herbicidal effect or phytotoxicity of 90% or more) | 5 (A herbicidal effect or phytotoxicity of 90% or more)
